Laboratory results as given in patent US7202235B2, “Tetracycline compounds for treatment of cryptosporidium parvum related disorders” (Trustees of Tufts College, priority 2000, dated 2007).

Test system: Cryptosporidium parvum
Assay: Assay for the ability of tetracycline compounds to control Cryptosporidium parvum infection in vitro (indirect immunofluorescence parasite count)
Assay type: cell-based
Conditions: C. parvum GCH1 oocysts in MDCK/MDBK cell monolayers, 48 hour incubation, IF parasite count, class by concentration giving 70% inhibition
Description: This assay is designed to test the ability of a tetracycline compound to control Cryptosporidium parvum infection in vitro. […] MDCK cells were grown in 96-well microtiter plastic plates, and were seeded with approximately 5×10^4 cells per well, using DMEM as the growth/maintenance medium with 10% FCS. Plates were normally grown to confluence 2–3 days after having been seeded with bleached, less than four week-old, C. parvum oocysts. The C. parvum isolate used most often was the human-derived, calf-propagated GCH1 (Tzipori, Clin. Diagn. Lab. Immunol. (1994) 1:450; Tzipori, J. Infect. Dis. (1995) 172:1160). The DMEM medium was also added to the negative control wells. The tetracycline compounds and the oocysts were added to the wells concurrently. The cells were subsequently monitored twice daily and any apparent morphologic changes were recorded. The monolayers were fixed with methanol after 48 hour incubation at 37° C. in 8% CO2. […] The tetracycline compounds were used at various concentrations (0.1–2000 μg/mL) and were dissolved directly into the culture medium. A conventional indirect immunofluorecensce (IF) assay was used to detect and enumerate parasite forms after 48-hour incubation. For the purposes of this assay, a polyclonal rabbit anti-sporozoite antibody was produced. […] The secondary antibody, a fluoroscein-conjugated goat anti-rabbit IgG, was used at a concentration of 1:100, according the manufacturer's instructions. The primary antibody was added after fixation for thirty minutes and after vigorous washing, the secondary antibody was incubated for another thirty minutes. The dried microtiter plate was viewed with an inverted microscope (x10 mag.), under ultraviolet light. For parasite counts, a semi-automated video imaging MCID system was used to facilitate the enumeration and analysis of the parasite data. In Table 1, good inhibition of C. parvum is indicated by ‘*’ (e.g., 70% inhibition at concentrations above 10 μg/ml and above) and very good inhibition of C. parvum is indicated by ‘**’ (e.g., 70% inhibition at concentrations below 10 μg/ml).

| SMILES | IC70 |
| --- | --- |
| CCC(=O)O[C@H]1C2C(=C(O)[C@]3(O)C(=O)C(C(N)=O)=C(O)[C@@H](N(C)C)C13)C(=O)c1c(O)cccc1[C@@H]2CSC1CCCC1 (some centres unmarked) | < 10 µg/mL |
| CN(C)[C@@H]1C(O)=C(C(N)=O)C(=O)[C@@]2(O)C(O)=C3C(=O)c4c(O)cccc4[C@H](CSC4CCCC4)C3[C@H](O)C12 (some centres unmarked) | < 10 µg/mL |
| CCC(=O)O[C@H]1C2C(=C(O)[C@]3(O)C(=O)C(C(N)=O)=C(O)[C@@H](N(C)C)C13)C(=O)c1c(ccc(C(C)(C)C)c1O)[C@@H]2C (some centres unmarked) | ≥ 10 µg/mL |
| CN(C)[C@@H]1C(O)=C(C(N)=O)C(=O)[C@@]2(O)C(O)=C3C(=O)c4c(O)cccc4SC3[C@H](O)C12 (some centres unmarked) | ≥ 10 µg/mL |
| C[C@H]1c2ccc(C3=CCCC3)c(O)c2C(=O)C2=C(O)[C@]3(O)C(=O)C(C(N)=O)=C(O)[C@@H](N(C)C)C3[C@@H](O)C21 (some centres unmarked) | < 10 µg/mL |
| C[C@H]1c2cccc(O)c2C(=O)C2=C(O)[C@]3(O)C(=O)C(C(N)=O)=C(O)[C@@H](N(C)C)C3[C@@H](O)C21 (some centres unmarked) | ≥ 10 µg/mL |
| C[C@H]1c2ccc(C(C)(C)C)c(O)c2C(=O)C2=C(O)[C@]3(O)C(=O)C(C(N)=O)=C(O)[C@@H](N(C)C)C3[C@@H](O)C21 (some centres unmarked) | < 10 µg/mL |
| CN(C)c1cc(C#CC2=CCCCC2)c(O)c2c1CC1CC3[C@H](N(C)C)C(O)=C(C(N)=O)C(=O)[C@@]3(O)C(O)=C1C2=O (some centres unmarked) | < 10 µg/mL |
